Data: PMC12115180 (Pharmaceuticals, 2025)
Where two headings read alike, the source gives them in different places.

What was measured:
[1] = Rabbit, average of n = 6; 0.5% 50 μL, 250 μg; cited from earlier work
[2] = set-up: method as in earlier work; conditions: cited from earlier work
[3] = tested on: patients with Central Serous Chorioretinopathy (CSC); conditions: cited from earlier work
[4] = tested on: HUVEC; conditions: in vitro; cited from earlier work
[5] = Mouse sub-retina/sclera complex pharmacokinetics after SC injection; type: in vivo, C57BL/6J mice; conditions: single SC injection 0.7 mg/kg
Procedure: This effective dosage and administration route was evaluated in dose escalation studies by using the mouse laser-induced CNV model. The AUC reflects the exposure to the drug after administration of a dose of the drug and is expressed in hour · ng/mg tissue. The AUC is dependent on the dose administered as well as the rate of elimination of the drug from the tissue. The AUC is directly proportional to the dose when the drug follows linear kinetics, and AUC is inversely proportional to the clearance of the drug. In 1 h, 3 h, 6 h, and 18 h after the SC injection, eyeballs were extracted. Tissue from the retina, the sclera, and the sub-retina complex were isolated and extracted. These tissues were immediately frozen in liquid nitrogen. The tissue was subjected to LC/MS analysis for quantitation. The detection limit was 0.25 ng/g tissue.

[6] = set-up: method as in WO 2023/234423 A1; conditions: mouse, SC; ref WO 2023/234423 A1; cited from earlier work
[7] = Human peak plasma exposure (package insert); type: in vivo; conditions: 600 mg intravenous dose, calculated from package insert values
[8] = Non-GLP tox studies in rabbits, topical application; type: in vivo; conditions: twice daily topical application of 1% rifampicin, 3-month dosing (Unpublished data)
[9] = Rat retina pharmacokinetics, single topical 0.25% rifampicin eye drop; type: in vivo, Sprague–Dawley rats; conditions: male, Sprague-Dawley, topical or ocular, 15 μL of 0.25% rifampicin eye drop
Procedure: At time points of 1 h, 3 h, and 7 h after the application of the eye drops, euthanasia was performed using CO2 gas, and the retinal tissues were excised from the rats under a dissection microscope. In addition, “non-treated” negative controls were used, and the retina was excised from one rat without performing any treatments on the rat. The retina was placed in a 1.5-mL microcentrifuge tube (1 retina/tube) and was fully washed with DPBS. After completion of the washing procedures, the retinal tissues in the microcentrifuge tube were frozen in dry ice and then preserved for quantification by LC/MS analysis.

[10] = Retinal delivery of rifampicin in rat after topical 0.25% eye drops; type: in vivo, Sprague-Dawley rats
Procedure: A single drop contained 5 μL of the above-described formulation, and the application of each drug drop was carried out at intervals of 30 min. After the eye drop application, euthanasia was performed using CO2 gas, and the retina was excised from each rat under a dissection microscope. In addition, “non-treated” negative controls were used, and the retina was excised from two rats without performing any treatments on the rats. The retina was placed in a 1.5 mL microcentrifuge tube (1 retina/tube) and was fully washed with DPBS. After completion of the washing procedures, the retinal tissues in the microcentrifuge tube were frozen in dry ice and then preserved for quantification by LC/MS analysis.

[11] = tested on: mouse laser-induced CNV model; test: Mouse laser-induced CNV model
[12] = set-up: method as in PMID 17995946; conditions: typical six-month course for tuberculosis; cited from earlier work
[13] = tested on: oxygen-induced retinopathy rat models; test: Oxygen-induced retinopathy rat model, capillary count in histology sections; type: in vivo, Sprague–Dawley rat; conditions: SC injection 20 mg/kg once a day P15–P19, histology P20
Description: Oxygen-induced retinopathy rat models were produced according to the protocols of Yanni et al. (2010). Sprague–Dawley rat babies (and their nursing mothers) were exposed to a cycling oxygen environment (80% and 21%, about one day for each) for 15 days after starting from the day of birth (Day 0). On Day 15 (P15), the animals were moved to room air. […] On P20, all of the animals were euthanized by CO2 gas, and the retina was visualized as histology sections.

**Q.** For `C[C@@H]1C[C@H]2[C@@H]3CCC4=CC(=O)C=C[C@]4(C)[C@@]3(F)[C@@H](O)C[C@]2(C)[C@@]1(O)C(=O)CO` [Dexamethasone], which “Drug Amount Detected in Retina” value [1] is on record?
**A.** 33 ng/ 1 g of retinal tissues (Rabbit, average of n = 6)

**Q.** With `CO[C@H]1/C=C/O[C@@]2(C)Oc3c(C)c(O)c4c(O)c(c(/C=N/N5CCN(C)CC5)c(O)c4c3C2=O)NC(=O)/C(C)=C\C=C\[C@H](C)[C@H](O)[C@@H](C)[C@@H](O)[C@@H](C)[C@H](OC(C)=O)[C@@H]1C` [Rifampicin] as the compound, how does the Peak plasma exposure ([2]; 600 mg intravenous dose) read?
**A.** 9 to 17 µg/mL

**Q.** And the Peak plasma exposure ([2]; 600 mg oral dose)?
**A.** 4 to 32 µg/mL

**Q.** And the “Effect on CSC” value ([3]; 600 mg daily oral dose)?
**A.** improvements in CSC

**Q.** And the “Effect on visual acuity and macular thickness in CSC” value ([3]; daily oral dosage of 300 mg)?
**A.** improved visual acuity and macular thickness

**Q.** And the “Concentration required for statistically significant inhibition of HUVEC tube formation and proliferation” value [4]?
**A.** approximately 30 µM

**Q.** What about the “Peak concentration in mouse sub-retinal and scleral complex” value [5] of the same compound?
**A.** approximately 0.03 ng/mg tissue weight

**Q.** What about the “Peak concentration in mouse sub-retinal and scleral complex, calculated molar” value [5] of the same compound?
**A.** roughly 0.04 µM

**Q.** And the “Share of rifampicin in sub-retina and sclera complex delivered to the sub-retina” value [6]?
**A.** approximately 70%

**Q.** And the “Estimated serum concentration corresponding to peak plasma exposure” value [7]?
**A.** 12 to 23 µM

**Q.** What about the “Toxicity on repeated topical application” value [8] of the same compound?
**A.** no toxicity

**Q.** What about the Tmax [9] of the same compound?
**A.** ~1 h

**Q.** And the “Drug Amount Detected in Retina” value ([10]; topical 0.25% 3 drops (15 μL, 37.5 μg))?
**A.** 1280 ng/ 1 g of retinal tissues (Rat) SE: 394.0348

**Q.** And the “Drug Amount Detected in Retina” value ([10]; topical 0.25% 10 drops (50 μL, 125 μg))?
**A.** 2939 ng/ 1 g of retinal tissues (Rat) SE: 50.54

**Q.** And the “Inhibition of neovascularization in CNV model” value ([11]; SC injection 0.7 mg/kg once daily, 7 days after laser)?
**A.** significantly inhibited neovascularization

**Q.** And the “Neovascularization inhibition level compared with intravitreal aflibercept” value ([11]; SC injections at doses exceeding 0.7 mg/kg)?
**A.** equivalent to that achieved with intravitreal injection of aflibercept

**Q.** And the “Minimum effective dose for inhibiting neovascularization in subretinal tissues” value ([11]; SC, dose escalation studies)?
**A.** 0.7 mg/kg

**Q.** What about the “Effective dosage in CNV model, times less than that of bacterial inhibition” value ([11]; vs 20 mg/kg effective systemic dosage for bacterial infection) of the same compound?
**A.** approximately 30 times

**Q.** And the Patients with hepatotoxicity [12]?
**A.** up to 28%

**Q.** And the “Number of new capillaries on the retinal surface vs vehicle control” value [13]?
**A.** fewer than that in the control group
